Reference: US20060093596A1, “Genomic approach to identification of novel broad-spectrum antimicrobial peptides from bony fish” (priority 2002, published 2006)
Where no end group is shown, it is not given here.

Key:
[1] = tested on: Aeromonas salmonicida 97-4
Protocol: (§1) Most non-fish bacterial strains as well as Candida albicans were grown at 37° C. in Mueller-Hinton Broth (MHB; Difco Laboratories, Detroit), while the fish bacteria were maintained at 16° C. in Tryptic Soy Broth (TSB; Difco, 5g/l NaCl).
(§2) Two field isolates of the salmonid pathogen Aeromonas salmonicida are from the IMB strain collection.
(§3) The activities of the antimicrobial peptides were determined as minimal inhibitory concentrations (MICs) using the microtitre broth dilution method of Amsterdam (Amsterdam, 1996), as modified by Wu and Hancock (1999). Serial dilutions of the peptide were made in water in 96-well polypropylene (Costar, Coming Incorporated, Coming, New York) microtiter plates. Bacteria or C. albicans were grown overnight to mid-logarithmic phase as described above, and diluted to give a final inoculum size of 10^6 cfu/ml. A suspension of bacteria or yeast was added to each well of a 96 well plate and incubated overnight at the appropriate temperature. […] Three repeats of each MIC determination were performed.

[2] = tested on: Escherichia coli DC2 (C500, outer membrane-permeable mutant); assay type: cell-based; settings: lowest peptide concentration inhibiting growth by at least 50%; Mueller-Hinton broth
Protocol: (§4) Most non-fish bacterial strains as well as Candida albicans were grown at 37° C. in Mueller-Hinton Broth (MHB; Difco Laboratories, Detroit), while the fish bacteria were maintained at 16° C. in Tryptic Soy Broth (TSB; Difco, 5g/l NaCl). All strains were stored at −70° C. until they were thawed for use and sub-cultured daily. The following strains, Pseudomonas aeruginosa K799 (parent of Z61), Pseudomonas aeruginosa Z61 (antibiotic supersusceptible), Salmonella typhimurium 14028s (parent of MS7953s), Salmonella typhimurium MS7953s (defensin supersusceptible), as well as Staphylococcus epidermidis (human clinical isolates) and methicillin-resistant Staphylococcus aureus (MRSA; isolated by Dr. A. Chow, University of British Columbia) have been kindly donated by Prof R. E. W. Hancock, University of British Columbia.
as §3

[3] = tested on: Escherichia coli C786, CGSC4908; assay type: cell-based; settings: lowest peptide concentration inhibiting growth by at least 50%; supplemented Mueller-Hinton broth
Protocol: All strains were stored at −70° C. until they were thawed for use and sub-cultured daily.
Escherichia coli strain CGSC 4908 (his-67, thyA43, pyr-37), auxotrophic for thymidine, uridine, and L-histidine (Cohen et al., 1963) was kindly supplied, free of charge, by the E.coli Genetic Stock Centre (Yale University, New Haven, Conn.). MHB supplemented with 5 mg/L thymidine, 10 mg/L uridine and 20 mg/L L-histidine (Sigma Chemical Co., St. Louis, Mo.), was used to grow E.coli CGSC 4908 unless otherwise specified.
The activities of the antimicrobial peptides were determined as minimal inhibitory concentrations (MICs) using the microtitre broth dilution method of Amsterdam (Amsterdam, 1996), as modified by Wu and Hancock (1999). Serial dilutions of the peptide were made in water in 96-well polypropylene (Costar, Coming Incorporated, Coming, New York) microtiter plates. Bacteria or C. albicans were grown overnight to mid-logarithmic phase as described above, and diluted to give a final inoculum size of 10^6 cfu/ml. A suspension of bacteria or yeast was added to each well of a 96 well plate and incubated overnight at the appropriate temperature. In the case of E. coli CGSC 4908, supplemented MHB was used. […] Three repeats of each MIC determination were performed.

[4] = tested on: Salmonella enterica s. Typhimurium 14028S (C587); assay type: cell-based; settings: lowest peptide concentration inhibiting growth by at least 50%; Mueller-Hinton broth
Protocol: as §4, §3

[5] = tested on: Pseudomonas aeruginosa Z61 (H188, supersusceptible strain); assay type: cell-based; settings: lowest peptide concentration inhibiting growth by at least 50%; Mueller-Hinton broth
Protocol: as §4, §3

[6] = tested on: methicillin-resistant Staphylococcus aureus (MRSA) C623, SAP017; settings: methicillin-resistant C623, SAP017
Protocol: as §4, §3

[7] = tested on: Candida albicans C627, CALB105; settings: C627, CALB105
Protocol: as §4, §3

[8] = tested on: Salmonella enterica s. Typhimurium MS4252S (C610, supersusceptible strain); assay type: cell-based; settings: lowest peptide concentration inhibiting growth by at least 50%; Mueller-Hinton broth
Protocol: as §4, §3

[9] = tested on: Escherichia coli UB1005 (C498); assay type: cell-based; settings: lowest peptide concentration inhibiting growth by at least 50%; Mueller-Hinton broth
Protocol: as §4, §3

[10] = tested on: Pseudomonas aeruginosa K799 (H187); assay type: cell-based; settings: lowest peptide concentration inhibiting growth by at least 50%; Mueller-Hinton broth
Protocol: as §4, §3

[11] = tested on: Staphylococcus epidermidis C621 (clinical isolate)
Protocol: as §4, §3

[12] = tested on: Aeromonas salmonicida 99-1, A449
Protocol: as §1, §2, §3

[13] = tested on: bacterial pathogens and C. albicans; experiment: Spectrum of antimicrobial activity (MIC panel, overall); assay type: cell-based; settings: summary of MIC results against bacteria and C. albicans
Protocol: Three repeats of each MIC determination were performed.
The minimal inhibitory concentrations of the chemically produced peptides against a wide range of baterial pathogens and C. albicans were determined and are shown in Table 9.

| Substance | Minimal inhibitory concentration, A. sal 97-4 [1] [µg/mL] | Minimal inhibitory concentration, E. coli DC2 [2] [µg/mL] | Minimal inhibitory concentration, E. coli C786 [3] [µg/mL] | Minimal inhibitory concentration, S. typh 14028s [4] [µg/mL] | Minimal inhibitory concentration, P. aeru Z61 [5] [µg/mL] | Minimal inhibitory concentration, MRSA C623 [6] [µg/mL] | Minimal inhibitory concentration, C. alb C627 [7] [µg/mL] | Minimal inhibitory concentration, S. typh MS4252s [8] [µg/mL] | Minimal inhibitory concentration, E. coli UB1005 [9] [µg/mL] | Minimal inhibitory concentration, P. aeru K799 [10] [µg/mL] | Minimal inhibitory concentration, S. epi C621 [11] [µg/mL] | Minimal inhibitory concentration, A. sal 99-1 [12] [µg/mL] | antimicrobial activity, overall (in words) [13] |
| --- | --- | --- | --- | --- | --- | --- | --- | --- | --- | --- | --- | --- | --- |
| AGWGSIFKHIFKAGKFIHGAIQAHND-NH2 [NRC-14] | 16 | 16 | 16 | >64 | 8 | 16 | >64 | 16 | 16 | 32 | 16 | 32 | – |
| FFRLLFHGVHHGGGYLNAA-NH2 [NRC-9] | >64 | >64 | 64 | >64 | 64 | >64 | >64 | 64 | >64 | >64 | >64 | >64 | poor or no observed activities |
| FFRLLFHGVHHVGKIKPRA-NH2 [NRC-10] | 32 | 32 | 32 | >64 | 8 | 64 | >64 | 16 | 32 | 32 | 32 | >64 | poor or no observed activities |
| FLGALIKGAIHGGRFIHGMIQNHH-NH2 [NRC-5] | >64 | >64 | 64 | >64 | 32 | 32 | >64 | 64 | 64 | >64 | 32 | >64 | – |
| FLGLLFHGVHHVGKWIHGLIHGHH-NH2 [NRC-19] | >64 | 32 | 32 | 64 | 8 | 8 | 64 | 16 | 16 | 32 | 8 | 64 | – |
| GFLGILFHGVHHGRKKALHMNSERRS [NRC-20] | >64 | – | – | – | – | >64 | >64 | – | – | – | >64 | >64 | – |
| GRRKRKWLRRIGKGVKIIGGAALDHL-NH2 [NRC-3] | 4 | 2 | 2 | 8 | 1 | 8 | 4 | 2 | 8 | 2 | 8 | 2 | – |
| GWGSFFKKAAHVGKHVGKAALTHYL-NH2 [NRC-4] | 2 | 2 | 2 | 16 | 4 | 8 | 8 | 2 | 4 | 8 | 8 | 2 | – |
| GWGSIFKHGRHAAKHIGHAAVNHYL-NH2 [NRC-6] | 4 | 2 | 4 | 64 | 4 | 32 | 32 | 4 | 4 | 16 | >64 | 4 | – |
| GWKKWFTKGERLSQRHFA [NRC-18] | 128 | – | – | – | – | >64 | >64 | – | – | – | >64 | >64 | – |
| GWKKWLRKGAKHLGQAAIK-NH2 [NRC-16] | 1 | 0.5 | 1 | 16 | 1 | 32 | 8 | 0.5 | 2 | 4 | 16 | 2 | broad spectrum of antimicrobial activity |
| GWKKWLRKGAKHLGQAAIKGLAS [NRC-17] | 1 | – | – | – | – | 16 | 8 | – | – | – | 32 | 2 | broad spectrum of antimicrobial activity |
